Data reported in patent publication US20230338363A1, “COMBINATION CHEMO-IMMUNOTHERAPY FOR PANCREATIC CANCER USING THE IMMUNOGENIC EFFECTS OF AN IRINOTECAN SILICASOME NANOCARRIER PLUS ANTI-PD-1” (The Regents of the University of California, priority 2020, published 2023).
Counter-ions that a name gives are not always drawn.

Tests used:
KPC cells = test: CRT expression (flow cytometry), HMGB1 release (ELISA) and ATP release; format: cell-based, mouse
Experimental: 7.5×10^4 KPC cells were seeded into 24-well plates. After cell attachment, KPC cells were treated with IRIN (300 µM), OX (500 µM), DOX (20 µM or PTX (12 µM for 24 h. The cell culture media were collected in 1.5 mL tube and spun down (2,000 rpm for 5 min) to collect the supernatants for HMGB1 detection by an ELISA kit (Catalog# ST51011, IBL International GmbH). Surface CRT expression was measured by flow cytometry in the same experiment, as previously described. ^[27] Briefly, the loosely attached cells were combined with trypsin-treated adhered cells. The cells were washed in cold PBS and then stained with a primary anti-CRT antibody (Abcam, ab2907, 1: 140) in 200 µL BD staining buffer for 0.5 h on ice. The cells were washed in cold PBS and stained with an Alexa Fluor® 680-conjugated secondary antibody (LifeScience Technologies #A21244) for 30 min on ice. After washing in cold PBS, the cells were assessed in a LSRII flow cytometer (BD Biosciences).

orthotopic KPC tumor = test: Survival experiment, IRIN silicasome plus anti-PD-1 in orthotopic KPC tumor model; format: in vivo, mouse
Experimental: Panel A) Explanation of the KPC model, including orthotopic implant in the pancreas and technical development of the primary tumor and metastases that can be followed by IVIS imaging. Animals were sacrificed according to the moribund criteria shown. Panel B). Details of the survival experiment in tumor-bearing mice (n = 5-7), which were treated with free IRIN or the silicasome at an IRIN dose equivalent of 40 mg/kg IV every 3- or 4-days, with or without IP administration of 100 µg anti-PD-1 antibody, for a total of six administrations. Please notice that the antibody was administered two days after IRIN injection. Saline and anti-PD-1 antibody alone were used as controls. Kaplan-Meier plots were used to display the survival rate of the different animal groups (*p<0.05, Log Rank test).
The KPC-derived orthotopic tumor model in immunocompetent B6129SF1/J mouse was established as described in FIG. 4, panel A. ^[16] Briefly, 30 µL of DMEM/Matrigel (1:1 v/v), containing ~1×10^6 KPC-luc cells, was injected into the tail of the pancreas in female B6129SF1/J mice (8~10 weeks) by a short survival surgery procedure.^[16] In the first survival experiment (FIG. 4, panel B), tumor-bearing mice were randomly assigned into 6 groups (n = 5-7) and received IV injection of the IRIN formulations at API dose of 40 mg/kg. Anti-PD-1 antibody was injected at 100 µg/animal IP. To assess survival rate, animals were monitored daily up to the stage of spontaneous death or approaching moribund status (defined in FIG. 4, panel A)^[16, 36]. The survival data were plotted as Kaplan-Meier curves, followed by data analysis to derive mean survival time. Statistical analysis and p values were obtained by Log Rank testing (Mantel-Cox), using GraphPad Prism 7.00 software.

[1] = pKa and % protonated drug (Henderson-Hasselbalch equation); format: physicochemical
Experimental: FIG. 9, panels A-D, illustrates a dose- and time-dependent study on IRIN-induced lysosomal alkalization effect in KPC cells. Panel A) Dose-dependence. KPC cells were treated with indicated free IRIN dose for 24 hours, followed by DND 99 and Hoechst dye co-staining, similar to FIG. 1, panel C. We were able to discern a major signal drop at 20 µM. IRIN accumulation in the KPC cells is indicated by white arrows. Panel B) Time-dependence. KPC cells were treated using 300 µM free IRIN for indicated time period, followed by DND 99/Hoechst co-staining, similar to panel A. We were able to observe a major DND 99 signal drop as early as 1 h post incubation. Quantification of DND 99 fluorescence intensity in panels A and B higher presented in FIG. 1, panel D. Panel C) Similar to the experiment described in FIG. 1, panel C, KPC cells were exposed to IRIN (300 µM) or chloroquine (CQ, 32 µM) for 24 h. The disappearance of the red fluorescence staining in the acidifying organellar environment in IRIN- and CQ-treated cells is as a result of the alkalization effect of these weak-base molecules. Bars are 10 µm. Panel D) The Henderson-Hasselbalch (H—H) equation allows calculation of % protonated drug at different pH values. Although 83.3% of IRIN molecules are protonated at pH 7.4, the equilibrium shifts to ~99% of the molecules at a lysosomal relevant pH ~4.5-5.5. […]

**Q.** What does the source list for `CCc1c2c(nc3ccc(OC(=O)N4CCC(N5CCCCC5)CC4)cc13)-c1cc3c(c(=O)n1C2)COC(=O)[C@]3(O)CC` [IRIN, Irinotecan hydrochloride trihydrate]?
**A.** ATP release (KPC cells): could not demonstrate an increase in ATP release; CRT expression and HMGB1 release (KPC cells; IRIN 300 µM, 24 h): strong inducer of both responses; MST (median survival time) (orthotopic KPC tumor; IRIN 40 mg/kg IV, anti-PD-1 100 µg IP, six administrations, saline 19): 19 days; survival (Kaplan-Meier, Log Rank test) (orthotopic KPC tumor; IRIN 40 mg/kg IV, anti-PD-1 100 µg/mouse IP): no survival benefits; % ILS (% increase in life span, [(T - C)/C] × 100) (orthotopic KPC tumor; vs. saline): 0.0%; % of molecules protonated ([1]; lysosomal relevant pH ~4.5-5.5): ~ 99%; % of molecules protonated ([1]; pH 7.4): 83.3%
